# Laboratory results: patent publication US10259781B2, “Imaging agents” (THE REGENTS OF THE UNIVERSITY OF MICHIGAN, priority 2012, dated 2019)
# “Also recorded” adds a separate entry of the source.
# Assays:
# [1] = system: cardiac sympathetic neurons; assay: Isolated working rat heart model: neuronal uptake and clearance kinetics
# Procedure: The radiotracer was infused into the heart for 10 minutes to measure the tracer uptake rate into cardiac sympathetic neurons (Kup, shown in units of ml/min/g tissue wet). Then, the heart was infused with normal heart perfusate to measure the tracer clearance rate from the heart over 2 hours.
# Experiments were conducted to test ^11C-phenoxyethylguanidine (PEG), e.g., to establish baseline values for the NET transport rate (Kup, expressed in units of mL perfusate/min/g wet) and the clearance rate from sympathetic neurons (T1/2, expressed in units of hours).
# adrenal glands = assay: Uptake into adrenal glands, microPET; format: in vivo, rhesus macaque monkey; settings: DMI block of NET
# Text: To assess the ability of [^18F]4F-MHPG to serve an additional clinical role as a marker of adrenergic tumors such as neuroblastoma and pheochromocytoma, data were collected to examine the uptake of [^18F]4F-MHPG into the adrenal gland. In control studies, the adrenal glands took up sufficient [^18F]4F-MHPG to be visualized, especially on the right side of the transaxial images, which was better separated from the kidney than the contralateral adrenal gland. There was also significant uptake in the cortex of the kidney. The kinetics of [^18F]4F-MHPG in the adrenal gland are very similar to those seen in the heart. In the DMI block study above, the adrenal glands were scanned for 10 minutes following the 90 minute cardiac study.
# [2] = Human radiation absorbed dose estimates, OLINDA/EXM 1.0, from rat biodistribution
# Procedure: During the development of embodiments of the technology provided herein, the biodistribution of [^18F]4F-MHPG into the organs of rats was assessed. In particular, four time points (Table 3) were collected and used to derive human radiation absorbed dose estimates using the OLINDA/EXM 1.0 software package (see, e.g., Stabin et al. (2005) “OLINDA/EXM; the second-generation personal computer software for internal dose assessment in nuclear medicine”, J Nucl Med. 46: 1023-7). […] These values were entered into the Dynamic Bladder model of OLINDA/EXM, assuming a 4.0-hour void interval. Organs with the highest absorbed dose estimates included the urinary bladder wall (0.666 rad/mCi), […] (0.221 rad/mCi), small intestine (0.201 rad/mCi), and the heart wall (0.201 rad/mCi). An ‘effective dose’ of 0.091 rem/mCi was estimated for [^18F]4F-MHPG. Under United States Federal Regulations governing research with a new radiopharmaceutical (21 CFR § 361.1), the maximum allowable radiation absorbed dose to an individual organ (other than the gonads) is 5 rad. Considering the maximum estimated absorbed dose (urinary bladder wall; 0.666 rad/mCi), initial PET studies in human subjects could use a maximum of 7.5 mCi of [^18F]4F-MHPG. This would correspond to an ‘effective dose’ of 0.68 rem.
# [3] = system: cardiac sympathetic nerve terminals; assay: MicroPET imaging and myocardial kinetics (compartmental modeling, Patlak graphical analysis) in monkeys; format: in vivo, rhesus macaque monkey
# Procedure: A series of microPET imaging studies were performed in the macaque model to assess image quality and tracer kinetics. In most of these the time course of the metabolic breakdown of [^18F]4F-MHPG in plasma was also determined. The studies are summarized below in Table 1.
# During the development of embodiments of the technology provided herein, the kinetics of [^18F]4F-MHPG in monkey hearts was assessed using either compartmental modeling or Patlak graphical analysis to obtain quantitative measures of regional cardiac sympathetic nerve density.
# For some analyses, a simplified compartmental model that assumed irreversible trapping inside nerve terminals was used to estimate the model rate constants K1 (ml/min/g), k2 (min^−1), k3 (min^−1), and a blood volume fraction BV (dimensionless) (see, e.g., FIG. 7). In both the control studies and DMI blocking studies, the model quickly converged to a single global minimum in just a few iterations of the nonlinear regression analysis (FIG. 8). […] This aggregate parameter provides a stable measure of cardiac nerve density that declined in a dose-dependent manner with increasing DMI dose (FIG. 9, “Kinetic modeling”).
# For some analyses, Patlak graphical analysis was used, which uses a mathematical transformation of the kinetic data Cp(t) and Ct(t) to generate a Tatlak plot′ having a characteristic linear phase (see, e.g., Patlak and Blasberg (1985) “Graphical evaluation of blood-to-brain transfer constants from multiple-time uptake data. Generalizations.” J Cereb Blood Flow 5: 584-90). The slope of the linear portion of a Patlak plot, Kp (ml/min/g), provides an alternate estimate of the ‘net uptake rate constant’ Ki (ml/min/g). Thus, for the model structure used (FIG. 7), the slope of the Patlak plot is given by Kp≈(K1k3)/(k2+k3).
# During the development of embodiments of the technology provided herein, the myocardial kinetics of [^18F]4F-MHPG was assessed using Patlak graphical analysis and metabolite-corrected plasma input functions. In this example, the Patlak plot is highly linear (r^2=1.00) and the estimated Patlak slope Kpatlak=0.252 ml/min/g. […] As such, regional estimates of the Patlak slope from Patlak analysis of the kinetics of [^18F]4F-MHPG serve as robust measures of regional cardiac sympathetic nerve density in patients with heart diseases.
smiles,measurement,setting,value
N=C(N)NCCc1ccc(F)c(O)c1 [[^18F]4F-MHPG] [4-[^18F]fluoro-meta-hydroxy-phenethylguanidine],kinetics compared with [11C]4F-MHPG,[1],almost identical
same,uptake into the adrenal glands under DMI block,adrenal glands,No uptake; also recorded: completely absent
same,effective dose for a maximum of 7.5 mCi,"[2]; initial PET studies in human subjects, 7.5 mCi",0.68 rem
same,Effective dose,[2]; reference adult male model,0.091 rem/mCi
same,"Effective dose, Dose for 10 mCi",[2]; reference adult male model,0.91 rem
same,"Radiation absorbed dose estimate, Dose for 10 mCi, Adrenals",[2]; reference adult male model,0.59 rad
same,"Radiation absorbed dose estimate, Dose for 10 mCi, Brain",[2]; reference adult male model,0.25 rad
same,"Radiation absorbed dose estimate, Dose for 10 mCi, Breasts",[2]; reference adult male model,0.26 rad
same,"Radiation absorbed dose estimate, Dose for 10 mCi, Gallbladder wall",[2]; reference adult male model,0.61 rad
same,"Radiation absorbed dose estimate, Dose for 10 mCi, Heart wall",[2]; reference adult male model,1.09 rad
same,"Radiation absorbed dose estimate, Dose for 10 mCi, Kidneys",[2]; reference adult male model,0.78 rad
same,"Radiation absorbed dose estimate, Dose for 10 mCi, LLI wall",[2]; reference adult male model,1.07 rad
same,"Radiation absorbed dose estimate, Dose for 10 mCi, Liver",[2]; reference adult male model,0.96 rad
same,"Radiation absorbed dose estimate, Dose for 10 mCi, Lungs",[2]; reference adult male model,0.35 rad
same,"Radiation absorbed dose estimate, Dose for 10 mCi, Muscle",[2]; reference adult male model,0.37 rad
same,"Radiation absorbed dose estimate, Dose for 10 mCi, Osteogenic cells",[2]; reference adult male model,0.49 rad
same,"Radiation absorbed dose estimate, Dose for 10 mCi, Ovaries",[2]; reference adult male model,0.88 rad
same,"Radiation absorbed dose estimate, Dose for 10 mCi, Pancreas",[2]; reference adult male model,0.63 rad
same,"Radiation absorbed dose estimate, Dose for 10 mCi, Red marrow",[2]; reference adult male model,0.37 rad
same,"Radiation absorbed dose estimate, Dose for 10 mCi, Skin",[2]; reference adult male model,0.26 rad
same,"Radiation absorbed dose estimate, Dose for 10 mCi, Small intestine",[2]; reference adult male model,2.01 rad
same,"Radiation absorbed dose estimate, Dose for 10 mCi, Spleen",[2]; reference adult male model,0.79 rad
same,"Radiation absorbed dose estimate, Dose for 10 mCi, Stomach wall",[2]; reference adult male model,0.48 rad
same,"Radiation absorbed dose estimate, Dose for 10 mCi, Testes",[2]; reference adult male model,0.41 rad
same,"Radiation absorbed dose estimate, Dose for 10 mCi, Thymus",[2]; reference adult male model,0.33 rad
same,"Radiation absorbed dose estimate, Dose for 10 mCi, Thyroid",[2]; reference adult male model,0.29 rad
same,"Radiation absorbed dose estimate, Dose for 10 mCi, Total body",[2]; reference adult male model,0.41 rad
same,"Radiation absorbed dose estimate, Dose for 10 mCi, ULI wall",[2]; reference adult male model,2.21 rad
same,"Radiation absorbed dose estimate, Dose for 10 mCi, Urinary bladder wall",[2]; reference adult male model,6.66 rad
same,"Radiation absorbed dose estimate, Dose for 10 mCi, Uterus",[2]; reference adult male model,1.03 rad
same,"Radiation absorbed dose estimate, Total dose, Adrenals",[2]; reference adult male model,0.059 rad/mCi
same,"Radiation absorbed dose estimate, Total dose, Brain",[2]; reference adult male model,0.025 rad/mCi
same,"Radiation absorbed dose estimate, Total dose, Breasts",[2]; reference adult male model,0.026 rad/mCi
same,"Radiation absorbed dose estimate, Total dose, Gallbladder wall",[2]; reference adult male model,0.061 rad/mCi
same,"Radiation absorbed dose estimate, Total dose, Heart wall",[2]; reference adult male model,0.109 rad/mCi
same,"Radiation absorbed dose estimate, Total dose, Kidneys",[2]; reference adult male model,0.078 rad/mCi
same,"Radiation absorbed dose estimate, Total dose, LLI wall",[2]; reference adult male model,0.107 rad/mCi
same,"Radiation absorbed dose estimate, Total dose, Liver",[2]; reference adult male model,0.096 rad/mCi
same,"Radiation absorbed dose estimate, Total dose, Lungs",[2]; reference adult male model,0.035 rad/mCi
same,"Radiation absorbed dose estimate, Total dose, Muscle",[2]; reference adult male model,0.037 rad/mCi
same,"Radiation absorbed dose estimate, Total dose, Osteogenic cells",[2]; reference adult male model,0.049 rad/mCi
same,"Radiation absorbed dose estimate, Total dose, Ovaries",[2]; reference adult male model,0.088 rad/mCi
same,"Radiation absorbed dose estimate, Total dose, Pancreas",[2]; reference adult male model,0.063 rad/mCi
same,"Radiation absorbed dose estimate, Total dose, Red marrow",[2]; reference adult male model,0.037 rad/mCi
same,"Radiation absorbed dose estimate, Total dose, Skin",[2]; reference adult male model,0.026 rad/mCi
same,"Radiation absorbed dose estimate, Total dose, Small intestine",[2]; reference adult male model,0.201 rad/mCi
same,"Radiation absorbed dose estimate, Total dose, Spleen",[2]; reference adult male model,0.079 rad/mCi
same,"Radiation absorbed dose estimate, Total dose, Stomach wall",[2]; reference adult male model,0.048 rad/mCi
same,"Radiation absorbed dose estimate, Total dose, Testes",[2]; reference adult male model,0.041 rad/mCi
same,"Radiation absorbed dose estimate, Total dose, Thymus",[2]; reference adult male model,0.033 rad/mCi
same,"Radiation absorbed dose estimate, Total dose, Thyroid",[2]; reference adult male model,0.029 rad/mCi
same,"Radiation absorbed dose estimate, Total dose, Total body",[2]; reference adult male model,0.041 rad/mCi
same,"Radiation absorbed dose estimate, Total dose, ULI wall",[2]; reference adult male model,0.221 rad/mCi
same,"Radiation absorbed dose estimate, Total dose, Urinary bladder wall",[2]; reference adult male model,0.666 rad/mCi
same,"Radiation absorbed dose estimate, Total dose, Uterus",[2]; reference adult male model,0.103 rad/mCi
same,net uptake rate constant Ki = (K1k3)/(k2+k3),"[3]; compartmental modeling, control studies, monkey heart",0.341 ± 0.041 mL/min/g
same,average measured Patlak slope Kp,"[3]; control studies, FIG. 11",0.302 ± 0.031 mL/min/g
same,in vivo defluorination,[3]; faint uptake in spinal column bones,little in vivo defluorination
same,liver uptake compared with [11C]HED or [123I]MIBG,[3]; microPET control studies,much lower
same,uptake in the lungs and liver,[3]; microPET control studies,very low uptake
same,estimated Patlak slope Kpatlak,"[3]; one control study, rhesus macaque, FIG. 10",0.252 mL/min/g
